Laboratory results: US20220389067A1, “Methods of Treating Neurodegenerative Diseases Caused by G4C2 Expansion in C9ORF72” (The Board of Trustees of the Leland Stanford Junior …, priority 2019, published 2022)

Tests used:
GR80 = assay: Effect of CAT-tailing inhibition on poly(GR) level; assay type: cell-based; conditions: FIG. 82
Description: Ribosome-stalled NPC is modified by a non-templated, 40S-independent CAT-tailing process that depends on Tae2/Clbn/NEMF family proteins. CAT-tailed substrates escaping the quality control system can accumulate and form aggregates. […] Consistently, RNAi of a fly homolog of Vms1, a stress-responsive mitochondrial RQC factor that antagonizes CAT-tailing by cleaving peptidyl-tRNA bond, increased high MW GR80 signal and total GR80 abundance (FIG. 77), whereas overexpression of mammalian Vms1 (ANKZF1) had opposite effect (FIG. 78). In C9ALS fibroblasts, ANKZF1 RNAi increased, whereas NEMF RNAi decreased poly(GR) (FIG. 78). Thus steady-state poly(GR) level is positively correlated with a CAT-tailing-like process.
The role of Ala- or Thr-tRNA synthetase (AARS or TARS) was examined. […] The specificity of the ARS effect was shown by the lack of effect of the other ARSs tested (FIG. 79). Thus AARS/TARS, and possibly select other ARSs (e.g., IARS), appear to be involved in GR80 CAT-tailing, and that CAT-tailing confers stabilization, aggregation, and toxicity. Further supporting this notion, poly(GR) containing an artificial CAT-tail (GR71-AT15) formed prominent aggregates on mitochondria on its own, and its level was not affected by NEMF RNAi or anisomycin treatment (FIG. 82).

[1] = test system: muscle tissue of C9-500 mice; assay: Muscle mitochondrial morphology and DPR levels in C9-500 mice; assay type: in vivo, mouse; conditions: i.p. 40 mg/kg/day
Method: (§1) Non-canonical Notch regulation of poly(GR) was then tested in mammalian cells. In HEK293T cells, overexpression of Notch (FIG. 91), or treatment of cells with the ATK activator SC79 (FIGS. 91 & 92) reduced Flag-GR80 level, whereas small molecule inhibitor of AKT (AKTi) or VCP (VCPi) increased Flag-GR80 level (FIG. 93). Similar to fly tissue, the Notch overexpression effect was blocked by VCPi (FIG. 91). […] On the other hand, AKTi or VCPi increased poly(GR) level (FIGS. 78 & 94). To further test the in vivo relevance, the C9ALS/FTD BAC transgenic mice (C9-500) were examined, which express a human C9orf72 gene with ˜500 G4C2 repeats. Treatment of C9-500 mice by i.p. injection of SC79 (40 mg/kg/day) improved motor behavior as detected with the rotarod assay (FIG. 95). This was correlated with rescue of muscle mitochondrial morphology (FIGS. 95 & 96) and reduction of poly(GR) (FIGS. 97 & 98) but not poly(GA) (FIGS. 98 & 99) levels in muscle tissue. […]
Female C9-500 BAC transgenic mice were i.p. injected with sc79 (Selleckchem) at 40 mg/kg/day (n=10) or vehicle (DMSO [Sigma]: PEG300 [Spectrum]: 2-Hydroxypropyl-beta-cyclodextran (20%) [Sigma] at 1:3:1) (n=8) from 16 weeks of age and continued for 3 months. […] Once all the mice were “ready”, the start button was pushed and the test began. […] The fall-off times of each animal were recorded and used for statistical analysis. […]

[2] = test system: C9ALS/FTD BAC transgenic mice (C9-500); assay: Rotarod assay in C9-500 BAC transgenic mice; assay type: in vivo, mouse; conditions: C9-500 mice, i.p. 40 mg/kg/day, FIG. 95
Method: as §1
Female C9-500 BAC transgenic mice were i.p. injected with sc79 (Selleckchem) at 40 mg/kg/day (n=10) or vehicle (DMSO [Sigma]: PEG300 [Spectrum]: 2-Hydroxypropyl-beta-cyclodextran (20%) [Sigma] at 1:3:1) (n=8) from 16 weeks of age and continued for 3 months. […] Once all the mice were “ready”, the start button was pushed and the test began. […] The fall-off times of each animal were recorded and used for statistical analysis.

patient fibroblasts = assay: poly(GR) level and mitochondrial morphology in patient fibroblasts (AKT/VCP modulation); assay type: cell-based, human
[3] = test system: Flag-GR80 in HEK293T cells; assay: Flag-GR80 level in HEK293T cells (non-canonical Notch/AKT/VCP modulation); assay type: cell-based; conditions: FIGS. 91-93
GR80 fly muscle = assay: Nigericin treatment of GR80 transgenic flies; assay type: in vivo, Drosophila
Description: To further test whether high MMP and altered ion homeostasis contribute to GR80 toxicity, GR80 flies we treated with nigericin, a K^+/H^+ antiporter that can re-balance mitochondrial matrix ion levels. […] Moreover, the aberrant interactions between MICOS subunits caused by GR80 (FIG. 42) and the elevated mito-K^+ in GR80 flies were rescued after nigericin treatment (FIGS. 41 & 42). Thus, by restoring mitochondrial ion homeostasis, nigericin may affect the MICOS structure and, in turn, GR80 stability, similar to the effects of the genetic manipulation of MICOS, although other mechanisms of nigericin action cannot be excluded.
Newly hatched flies were collected and placed into vials with instant fly food (Carolina Biological Supply Company, USA) mixed with different doses ([…]) of Nigericin (Cayman Chemical, 11437) from the stock solution (50 mM dissolved in DMSO). The flies were fed for 7 days and changed with fresh vial every 24 hours. After treatments, fly thoracic samples were harvested and used for sample preparation.

[4] = test system: fibroblasts from C9-ALS/FTD patients carrying C9ORF72 G4C2 repeat expansion; assay: Nigericin treatment of C9-ALS/FTD patient fibroblasts; assay type: cell-based, human
Method: (§2) Finally, it was tested whether the pathogenic mechanisms uncovered in flies are relevant to GR toxicity in patient cells. In fibroblasts from C9-ALS/FTD patients carrying C9ORF72 G4C2 repeat expansion, GR was present in the mitochondrial fraction, as shown by dot blot (FIG. 46) and immunostaining (FIG. 46), although nuclear GR was also detected (FIG. 46). […] Thus, altered mitochondrial inner membrane structure and ion homeostasis are conserved features of C9-ALS. There were also GR interactions with Mic27/Apool in patient fibroblasts (FIG. 49). Nigericin treatment (FIGS. 50 & 51) or knockdown of key MICOS components (FIGS. 49 & 52) rescued the mitochondrial defects in patient fibroblasts. […] Nigericin treatment (FIG. 54) or knockdown of key MICOS components (FIG. 53) reduced the GR level in patient cells, but nigericin had no effect on the GA level (FIG. 53).

[5] = test system: HEK293 cells transfected with GR80; assay: mito-K+ in HEK293 cells transfected with GR80; assay type: cell-based; conditions: HEK293 cells transfected with GR80, FIG. 53
Method: as §2

COc1ccc(C[C@H]2NC[C@H](O)[C@H]2OC(C)=O)cc1 [Anisomycin, anisomycin]
level of poly(GR) containing an artificial CAT-tail (GR71-AT15) (GR80): not affected

CCOC(=O)C1=C(N)Oc2ccc(Cl)cc2C1C(C#N)C(=O)OCC (centres unmarked) [SC79]
muscle mitochondrial morphology ([1]; FIGS. 95 & 96): rescue | poly(GR) level in muscle tissue ([1]; FIGS. 97 & 98): reduction | motor behavior as detected with the rotarod assay [2]: improved | mitochondrial morphology (patient fibroblasts; FIG. 93): rescued | poly(GR) level (patient fibroblasts; FIGS. 78 & 94): significantly reduced | Flag-GR80 level [3]: reduced

CO[C@@H]1C[C@@H](C[C@H]2CC[C@H](C)[C@H]([C@@H](C)C(=O)O)O2)O[C@]2(O[C@](C)([C@H]3CC[C@@](C)([C@@H]4O[C@@H]([C@H]5O[C@@](O)(CO)[C@H](C)C[C@@H]5C)C[C@@H]4C)O3)C[C@H]2C)[C@@H]1C [nigericin]
GR80 level in fly muscle (GR80 fly muscle; GR80 flies, FIG. 44): significantly reduced | mitochondrial morphology (GR80 fly muscle; GR80 flies, low concentrations of nigericin in food, FIG. 43): effectively restored | GR80 fly wing-posture defect (GR80 fly muscle; GR80 flies, nigericin in food, FIG. 44): rescue | aberrant interactions between MICOS subunits caused by GR80 (GR80 fly muscle; after nigericin treatment, FIG. 42): rescued | elevated mito-K+ in GR80 flies (GR80 fly muscle; after nigericin treatment, FIGS. 41 & 42): rescued | GA80 level (GR80 fly muscle; flies, specificity control, FIG. 42): did not affect | GR level in patient cells ([4]; C9-ALS/FTD patient fibroblasts, FIG. 54): reduced | mitochondrial defects in patient fibroblasts ([4]; C9-ALS/FTD patient fibroblasts, FIGS. 50 & 51): rescued | GA level ([4]; patient cells, FIG. 53): no effect | GR-induced mito-K+ increase [5]: reduced
